Assays:
Assay in all cases: Post-emergence herbicidal glasshouse test
Format in all cases: in vivo
Settings in all cases: post-emergence spray, evaluated after 13 days, five-point scale
[1] = tested on: Echinochloa crus-galli (ECHCG)
Experimental: (§1) Seeds of a variety of test species are sown in standard soil in pots (Ipomoea hederacea (IPOHE), Abutilon theophrasti (ABUTH), Amaranthus retoflexus (AMARE), Echinochloa crus-galli (ECHCG), Setaria faberi (SETFA)). After 8 days cultivation under controlled conditions in a glasshouse (at 24/16° C., day/night; 14 hours light; 65% humidity), the plants are sprayed with an aqueous spray solution derived from the formulation of the technical active ingredient in acetone / water (50:50) solution containing 0.5% Tween 20 (polyoxyethelyene sorbitan monolaurate, CAS RN 9005-64-5). Compounds are applied at 1000 g/ha unless otherwise stated. The test plants are then grown in a glasshouse under controlled conditions in a glasshouse (at 24/16° C., day/night; 14 hours light; 65% humidity) and watered twice daily. After 13 days the test is evaluated for the percentage damage caused to the plant. The biological activities are shown in the following table on a five-point scale (5=81-100%; 4=61-80%; 3=41-60%; 2=21-40%; 1=0-20%).

[2] = tested on: Abutilon theophrasti (ABUTH)
Experimental: as §1

[3] = tested on: Amaranthus retoflexus (AMARE)
Experimental: as §1

Setaria faberi (SETFA) = tested on: Setaria faberi (SETFA)
Experimental: as §1

[4] = tested on: Ipomoea hederacea (IPOHE)
Experimental: as §1

SMILES | percentage damage caused to the plant, ECHCG ([1]; 1000 g/ha) | percentage damage caused to the plant, ABUTH ([2]; 1000 g/ha) | percentage damage caused to the plant, AMARE ([3]; 1000 g/ha) | percentage damage caused to the plant, SETFA (Setaria faberi (SETFA); 1000 g/ha) | percentage damage caused to the plant, IPOHE ([4]; 1000 g/ha) | percentage damage caused to the plant, ECHCG ([1]; applied at 500 gai/ha) | percentage damage caused to the plant, ABUTH ([2]; applied at 500 gai/ha) | percentage damage caused to the plant, AMARE ([3]; applied at 500 gai/ha) | percentage damage caused to the plant, SETFA (Setaria faberi (SETFA); applied at 500 gai/ha) | percentage damage caused to the plant, IPOHE ([4]; applied at 500 gai/ha)
N#Cc1cc(Br)c(O)c(-c2ccccc2)c1 [Compound 1.047] | 1 (1=0-20%) | 5 (5=81-100%) | 5 (5=81-100%) | 2 (2=21-40%) | 3 (3=41-60%) | – | – | – | – | –
N#Cc1cc(Br)c(O)c(-c2cnc3c(c2)OC(F)(F)O3)c1 [Compound 1.036] | 3 (3=41-60%) | 2 (2=21-40%) | 5 (5=81-100%) | 4 (4=61-80%) | 3 (3=41-60%) | – | – | – | – | –
N#Cc1cc(Br)c(O)c(-c2cccc(Cl)c2F)c1 [Compound 1.045] | 1 (1=0-20%) | 3 (3=41-60%) | 5 (5=81-100%) | 1 (1=0-20%) | 1 (1=0-20%) | – | – | – | – | –
N#Cc1cc(-n2cc(C(F)(F)F)cn2)c(O)c(C(F)(F)F)c1 [Compound 1.190] | 1 (1=0-20%) | 1 (1=0-20%) | 3 (3=41-60%) | 1 (1=0-20%) | 1 (1=0-20%) | – | – | – | – | –
N#Cc1cc(Br)c(O)c(-c2ccsc2)c1 [Compound 1.135] | 1 (1=0-20%) | 5 (5=81-100%) | 2 (2=21-40%) | 1 (1=0-20%) | 5 (5=81-100%) | – | – | – | – | –
Cn1nc(-c2cc(C#N)cc(Br)c2O)cc1C(F)(F)F [Compound 1.007, 3-bromo-4-hydroxy-5-[1-methyl-5-(trifluoromethyl)pyrazol-3-yl]benzonitrile] | – | 2 (2=21-40%) | 5 (5=81-100%) | 1 (1=0-20%) | 3 (3=41-60%) | – | – | – | – | –
N#Cc1cc(Br)c(O)c(-c2cccc(C(F)(F)F)c2)c1 [Compound 1.060] | 1 (1=0-20%) | 4 (4=61-80%) | 5 (5=81-100%) | 1 (1=0-20%) | 2 (2=21-40%) | – | – | – | – | –
N#Cc1cc(Cl)c(O)c(-c2cccc(F)c2)c1 [Compound 1.004] | 3 (3=41-60%) | 5 (5=81-100%) | 5 (5=81-100%) | 3 (3=41-60%) | 1 (1=0-20%) | – | – | – | – | –
N#Cc1cccc(-c2cc(C#N)cc(C(F)(F)F)c2O)c1 [Compound 1.145] | – | – | – | – | – | 1 (1=0-20%) | 1 (1=0-20%) | 1 (1=0-20%) | 1 (1=0-20%) | 3 (3=41-60%)
N#Cc1cc(Br)c(O)c(-c2cccc(Br)c2)c1 [Compound 1.061] | 1 (1=0-20%) | 3 (3=41-60%) | 5 (5=81-100%) | 1 (1=0-20%) | 3 (3=41-60%) | – | – | – | – | –
N#Cc1cc(-n2cc(F)cn2)c(O)c(C(F)(F)F)c1 [Compound 1.186] | 1 (1=0-20%) | 5 (5=81-100%) | 2 (2=21-40%) | 1 (1=0-20%) | 4 (4=61-80%) | – | – | – | – | –
N#Cc1cc(Br)c(O)c(-c2ccc(C(F)(F)F)c(C(F)(F)F)c2)c1 [Compound 1.008] | – | 2 (2=21-40%) | 5 (5=81-100%) | 4 (4=61-80%) | 2 (2=21-40%) | – | – | – | – | –
Cc1cc(F)cc(-c2cc(C#N)cc(C(F)(F)F)c2O)c1 [Compound 1.162] | 1 (1=0-20%) | 1 (1=0-20%) | 2 (2=21-40%) | 1 (1=0-20%) | 3 (3=41-60%) | – | – | – | – | –
N#Cc1cc(-c2ccc(F)c(Cl)c2)c(O)c(C(F)(F)F)c1 [Compound 1.160] | 1 (1=0-20%) | 1 (1=0-20%) | 5 (5=81-100%) | 1 (1=0-20%) | 2 (2=21-40%) | – | – | – | – | –
N#Cc1cc(-c2csc(C(F)(F)F)n2)c(O)c(C(F)(F)F)c1 [Compound 1.225] | – | – | 5 (5=81-100%) | – | – | – | – | – | – | –
N#Cc1cc(-c2cc(F)c(F)c(F)c2)c(O)c(C(F)(F)F)c1 [Compound 1.182] | 1 (1=0-20%) | 4 (4=61-80%) | 5 (5=81-100%) | 1 (1=0-20%) | 5 (5=81-100%) | – | – | – | – | –
N#Cc1cc(Br)c(O)c(-c2cccc(Cl)c2)c1 [Compound 1.054] | 3 (3=41-60%) | 5 (5=81-100%) | 5 (5=81-100%) | 2 (2=21-40%) | 2 (2=21-40%) | – | – | – | – | –
CC(=O)Oc1c(-c2cccc(F)c2)cc(C#N)cc1C(F)(F)F [Compound 2.002] | 4 (4=61-80%) | 5 (5=81-100%) | 5 (5=81-100%) | 1 (1=0-20%) | 5 (5=81-100%) | – | – | – | – | –
N#Cc1cc(Br)c(O)c(-c2cncc(F)c2)c1 [Compound 1.052] | 1 (1=0-20%) | 5 (5=81-100%) | 5 (5=81-100%) | 3 (3=41-60%) | 1 (1=0-20%) | – | – | – | – | –
N#Cc1cc(F)cc(-c2cc(C#N)cc(Br)c2O)c1 [Compound 1.032] | – | 4 (4=61-80%) | 5 (5=81-100%) | 4 (4=61-80%) | 3 (3=41-60%) | – | – | – | – | –
COc1cc(-c2cc(C#N)cc(Br)c2O)cc(C(F)(F)F)n1 [Compound 1.009] | – | 2 (2=21-40%) | 4 (4=61-80%) | 2 (2=21-40%) | 2 (2=21-40%) | – | – | – | – | –
N#Cc1cc(Br)c(O)c(-c2cc(F)cc(Cl)c2)c1 [Compound 1.034] | – | 4 (4=61-80%) | 4 (4=61-80%) | – | – | – | – | – | – | –
N#Cc1cc(Cl)c(O)c(-n2cc(C(F)(F)F)cn2)c1 [Compound 1.001, 3-chloro-4-hydroxy-5-[4-(trifluoromethyl)pyrazol-1-yl]benzonitrile] | – | 5 (5=81-100%) | 4 (4=61-80%) | 4 (4=61-80%) | 1 (1=0-20%) | – | – | – | – | –
N#Cc1cc(Br)c(O)c(-c2cc(F)cc(C(F)(F)F)c2)c1 [Compound 1.027] | – | 4 (4=61-80%) | 5 (5=81-100%) | 4 (4=61-80%) | 3 (3=41-60%) | – | – | – | – | –

From patent US20230024283A1, “HERBICIDAL COMPOUNDS” (SYNGENTA CROP PROTECTION AG, priority 2020, published 2023)
